In US12495798B2, “Nicotinamide compound and herbicidal composition comprising compound” (KOREA RESEARCH INSTITUTE OF CHEMICAL TECHNOLOGY, priority 2019, dated 2025):

How the values were obtained:
Type in all cases: in vivo
quack grass = test: Herbicidal activity test against upland field weeds (foliar treatment test); parameters: key to Foliar treatment herbicidal activity, quack grass: 0 (no control); 100 (complete control); settings: 50 g ai/ha, scale 0-100
Outline: (§1)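 Weeds were raised from seed or rootstocks in horticultural soil in a greenhouse (30±5° C., 14/10 h light/dark), then foliage was hand-sprayed with compound at 50 or 75 g a.i./ha in 50% acetone with 0.1% Tween-20. Control was scored visually 0–100 against untreated plants after 14 days, or 21 if needed.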

velvetleaf [1] = test: as above; parameters: key to Foliar treatment herbicidal activity, velvet leaf: 0 (no control); 100 (complete control); settings: 50 g ai/ha; for Foliar treatment herbicidal activity, velvet leaf: scale 0-100; for pest or weed control at 50 g/ha: Abutilon theophrasti, scale 0-100, read-out: Foliar treatment herbicidal activity, velvet leaf
Outline: as §1

cocklebur [2] = test: Herbicidal activity test against upland field weeds (soil treatment test); parameters: key to Soil treatment herbicidal activity, Cocklebur: 0 (no control); 100 (complete control); settings: 50 g ai/ha, scale 0 (no control) to 100 (complete control)
Outline: (§2)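 Pre-emergence test: seeds or rootstocks were sown in fertilized sandy loam, and the next day the soil surface was sprayed with compound at 50 or 75 g a.i./ha in 50% acetone/0.1% Tween-20. Plants were grown in a greenhouse (30±5 °C, 14/10 h light/dark), then visually scored 0–100 against untreated at 14 d (21 d if needed).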

wheat = test: Phytotoxicity test for field crops (soil treatment test); parameters: key: 0 (no harm); 9 (complete withered)
Outline: (§3)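 Each value is a 0–9 visual phytotoxicity grade from greenhouse pots (30±5° C, 14 h light/10 h dark). Sterilized soil of pH 6.1 was sprayed one day after sowing with 19˜300 g a.i./ha in 33% acetone containing 0.1% Tween-20, and injury was assessed at 10 and 20 days.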

rice = test: as above; parameters: key: 0 (no harm); 9 (complete withered)
Outline: as §3

cotton = test: as above; parameters: key: 0 (no harm); 9 (complete withered)
Outline: as §3

corn = test: as above; parameters: key: 0 (no harm); 9 (complete withered)
Outline: as §3

soybean = test: as above; parameters: key: 0 (no harm); 9 (complete withered)
Outline: as §3

cocklebur [3] = test: Herbicidal activity test against upland field weeds (foliar treatment test); parameters: key to Foliar treatment herbicidal activity, Cocklebur: 0 (no control); 100 (complete control); settings: 50 g ai/ha, scale 0-100; for pest or weed control at 50 g/ha: Xanthium strumarium
Outline: as §1

indian jointvetch = test: as above; settings: 50 g ai/ha, scale 0-100
Outline: as §1

bindweed = test: as above; parameters: key to Foliar treatment herbicidal activity, Bindweed: 0 (no control); 100 (complete control); settings: 50 g ai/ha, scale 0-100
Outline: as §1

velvetleaf [4] = test: Herbicidal activity test against upland field weeds (soil treatment test); parameters: key to Soil treatment herbicidal activity, velvet leaf: 0 (no control); 100 (complete control); settings: 50 g ai/ha, scale 0 (no control) to 100 (complete control)
Outline: as §2

barnyard grass = test: as above; parameters: key to Soil treatment herbicidal activity, barnyard grass: 0 (no control); 100 (complete control); settings: 50 g ai/ha, scale 0 (no control) to 100 (complete control); for pest or weed control at 50 g/ha: Echinochloa crus-galli
Outline: as §2

sorghum = test: Herbicidal activity test against upland field weeds (foliar treatment test); settings: 50 g ai/ha, scale 0-100; for plant injury at 50 g/ha: Sorghum
Outline: as §1

[5] = 50 g ai/ha, Wheat (10 days after treatment)
[6] = 50 g ai/ha, Wheat (20 days after treatment)
[7] = 100 g ai/ha, Wheat (10 days after treatment)
[8] = 100 g ai/ha, Wheat (20 days after treatment)
[9] = 50 g ai/ha, Rice (10 days after treatment)
[10] = 50 g ai/ha, Rice (20 days after treatment)
[11] = 100 g ai/ha, Rice (10 days after treatment)
[12] = 100 g ai/ha, Rice (20 days after treatment)
[13] = 50 g ai/ha, Cotton (10 days after treatment)
[14] = 50 g ai/ha, Cotton (20 days after treatment)
[15] = 100 g ai/ha, Cotton (10 days after treatment)
[16] = 100 g ai/ha, Cotton (20 days after treatment)
[17] = 50 g ai/ha, Corn (10 days after treatment)
[18] = 50 g ai/ha, Corn (20 days after treatment)
[19] = 100 g ai/ha, Corn (10 days after treatment)
[20] = 100 g ai/ha, Corn (20 days after treatment)
[21] = 50 g ai/ha, Soybean (10 days after treatment)
[22] = 50 g ai/ha, Soybean (20 days after treatment)
[23] = 100 g ai/ha, Soybean (10 days after treatment)
[24] = 100 g ai/ha, Soybean (20 days after treatment)

Row | SMILES | Foliar treatment herbicidal activity, quack grass (quack grass) | Soil treatment herbicidal activity, Cocklebur (cocklebur [2]) | Soil treatment phytotoxicity, Wheat (wheat; [5]) | Soil treatment phytotoxicity, Wheat (wheat; [6]) | Soil treatment phytotoxicity, Wheat (wheat; [7]) | Soil treatment phytotoxicity, Wheat (wheat; [8]) | Soil treatment phytotoxicity, Rice (rice; [9]) | Soil treatment phytotoxicity, Rice (rice; [10]) | Soil treatment phytotoxicity, Rice (rice; [11]) | Soil treatment phytotoxicity, Rice (rice; [12]) | Soil treatment phytotoxicity, Cotton (cotton; [13]) | Soil treatment phytotoxicity, Cotton (cotton; [14]) | Soil treatment phytotoxicity, Cotton (cotton; [15]) | Soil treatment phytotoxicity, Cotton (cotton; [16]) | Soil treatment phytotoxicity, Corn (corn; [17]) | Soil treatment phytotoxicity, Corn (corn; [18]) | Soil treatment phytotoxicity, Corn (corn; [19]) | Soil treatment phytotoxicity, Corn (corn; [20]) | Soil treatment phytotoxicity, Soybean (soybean; [22]) | Soil treatment herbicidal activity, velvet leaf (velvetleaf [4]) | other results
1 | Cn1nnc(COCc2nc(C(F)(F)F)ccc2C(=O)N(C(=O)c2ccccc2)c2nnnn2C)n1 [Compound No. 2-68, N-benzoyl-N-(1-methyl-1H-tetrazol-5-yl)-2-(((2-methyl-2H-tetrazol-5-yl)methoxy)methyl)-6-(trifluoromethyl)nicotinamide] | 0 | 0 | 0 | 0 | 0 | 0 | 6 | 7 | 8 | 9 | 1 | 5 | 3 | 9 | 0 | 0 | 0 | 0 | 0 | 100 | Foliar treatment herbicidal activity, velvet leaf (velvetleaf [1]): 100; Soil treatment phytotoxicity, Soybean (soybean; [21]): 0; Soil treatment phytotoxicity, Soybean (soybean; [23]): 0; Soil treatment phytotoxicity, Soybean (soybean; [24]): 0; Foliar treatment herbicidal activity, Cocklebur (cocklebur [3]): 100; pest or weed control at 50 g/ha (indian jointvetch): 98%; Foliar treatment herbicidal activity, Bindweed (bindweed): 100; pest or weed control at 50 g/ha (barnyard grass): 98%; plant injury at 50 g/ha (sorghum): 80%
2 | Cn1nnc(COCc2nc(C(F)(F)F)ccc2C(=O)N(c2nnnn2C)S(C)(=O)=O)n1 [Compound No. 2-69, N-(1-methyl-1H-tetrazol-5-yl)-2-(((2-methyl-2H-tetrazol-5-yl)methoxy)methyl)-N-(methylsulfonyl)-6-(trifluoromethyl)nicotinamide] | 0 | 0 | 0 | 1 |  |  | 7 | 8 |  |  | 1 | 5 |  |  | 0 | 0 |  |  | 0 | 100 | pest or weed control at 50 g/ha (velvetleaf [1]): 80%; Soil treatment phytotoxicity, Soybean (soybean; [21]): 0; pest or weed control at 50 g/ha (cocklebur [3]): 95%; pest or weed control at 50 g/ha (indian jointvetch): 80%; pest or weed control at 50 g/ha (bindweed): 40%; pest or weed control at 50 g/ha (barnyard grass): 100%; plant injury at 50 g/ha (sorghum): 40%
3 | Cn1nnc(CSCc2nc(C(F)F)ccc2C(=O)Nc2nnnn2C)n1 [Compound No. 2-108, 6-(difluoromethyl)-N-(1-methyl-1H-tetrazol-5-yl)-2-((((2-methyl-2H-tetrazol-5-yl)methyl)thio)methyl)nicotinamide] | 0 | 0 | 0 | 0 | 0 | 0 | 0 | 0 | 0 | 0 | 0 | 1 | 0 | 3 | 0 | 0 | 0 | 0 | 0 | 0 | pest or weed control at 50 g/ha (velvetleaf [1]): 30%; Soil treatment phytotoxicity, Soybean (soybean; [24]): 3; pest or weed control at 50 g/ha (cocklebur [3]): 98%; pest or weed control at 50 g/ha (indian jointvetch): 80%; pest or weed control at 50 g/ha (bindweed): 90%; Soil treatment herbicidal activity, barnyard grass (barnyard grass): 0; plant injury at 50 g/ha (sorghum): 70%
4 | Cn1cnc(COCc2nc(C(F)F)ccc2C(=O)Nc2nnnn2C)n1 [Compound No. 2-85] |  | 25 | 0 | 0 | 0 | 0 | 0 | 0 | 1 | 0 | 0 | 0 | 2 | 0 | 0 | 0 | 0 | 0 | 0 | 20 | Foliar treatment herbicidal activity, velvet leaf (velvetleaf [1]): 100; Soil treatment phytotoxicity, Soybean (soybean; [21]): 2; Soil treatment phytotoxicity, Soybean (soybean; [23]): 3; Soil treatment phytotoxicity, Soybean (soybean; [24]): 0; Foliar treatment herbicidal activity, Cocklebur (cocklebur [3]): 97; Foliar treatment herbicidal activity, Indian jointvetch (indian jointvetch): 97; Foliar treatment herbicidal activity, Bindweed (bindweed): 99; Soil treatment herbicidal activity, barnyard grass (barnyard grass): 0; Foliar treatment herbicidal activity, Sorghum (sorghum): 5
5 | Cn1nnnc1COc1nc(C(F)(F)F)ccc1C(=O)Nc1nnnn1C [Compound No. 1-1, N-(1-methyl-1H-tetrazol-5-yl)-2-((1-methyl-1H-tetrazol-5-yl)methoxy)-6-(trifluoromethyl)nicotinamide] | 0 | 0 | 0 | 0 | 0 | 1 | 1 | 7 | 3 | 9 | 2 | 6 | 2 | 7 | 0 | 0 | 0 | 0 | 5 | 100 | pest or weed control at 50 g/ha (velvetleaf [1]): 98%; Soil treatment phytotoxicity, Soybean (soybean; [21]): 3; Soil treatment phytotoxicity, Soybean (soybean; [23]): 3; Soil treatment phytotoxicity, Soybean (soybean; [24]): 7; Foliar treatment herbicidal activity, Cocklebur (cocklebur [3]): 100; pest or weed control at 50 g/ha (indian jointvetch): 30%; pest or weed control at 50 g/ha (barnyard grass): 95%; plant injury at 50 g/ha (sorghum): 70%
